# Assays:
# [1] = test system: mice; settings: cited from earlier work
# [2] = test system: neural stem cells; experiment: In vitro differentiation assay on adult neural stem cells (beta-III-tubulin promoter firefly/Renilla dual luciferase reporter); format: cell-based, rat
# Source text: The neuroregenerative effect of the compounds according to the present invention can be assayed in vitro by measuring their stimulation of the differentiation of neural stem cells. Therefore, adult neural stem cells have to be isolated and subsequently cultivated in a suitable culture medium. After several passages in vitro the stem cells have to be co-transfected with a DNA construct coding for two discriminable reporter proteins one of them under the control of a constitutive promoter and the other under the control of a beta-III-tubulin promoter. The beta-III-tubulin promoter is induced during the process of neural stem cell differentiation; therefore the reporter protein under the control of this promoter serves as a marker for the stem cell differentiation in such an in vitro dual reporter assay (Schneider et al., J Clin Investigation 2005; 115:2083-2098). The person skilled in the art knows several suitable constitutive promoters such as the SV40-promoter, the TK-promoter, or the CMV-promoter. As discriminable reporter proteins for such a dual reporter assay one can use discriminable luciferases such as firefly luciferase and Renilla luciferase. The transfected cells have to be incubated with the test compound and with a positive and negative controls for normalization and background correction. As a positive control compound one can use retinoic acid (Guan et al., Cell Tissue Res. 2001; 305:171-176; Jacobs et al., Proc. Natl. Acad. Sci. USA 2006; 103:3902-3907), a suitable negative control is the sham treatment of the cells. The neroregenerative activity of the test compound is determined as the ratio of the signal of the beta-III-tubulin promoter controlled reporter versus the signal of the constitutively expressed reporter and is expressed as fold from the control. This assay is suitable to assess the neuroregenerative activity of piperine and derivatives thereof, but also can be used to screen for other potential neuroregenerative compounds. Preferably, such a screening can be used to test compounds which are already known to be suitable as a medicament in terms of its toxicology, bioavailability, solubility, stability etc.
# Neural stem cells were isolated from the subventricular zone of 4 week-old male Wistar rats as described (Maurer et al, Proteome Sci. 2003; 1:4). Cells were cultivated in Neurobasal medium (Invitrogen) supplemented with B27 (Invitrogen), 2 mM L-glutamine, 100 units/ml penicillin, 100 units/ml streptomycin, 20 ng/ml […] (EGF), 20 ng/ml fibroblast growth factor-2 (FGF-2), and 2 μg/ml heparin. Once a week the neural stem cells were passaged and experiments were performed after 4 weeks in vitro. For DNA transfection, the cells were dissociated and plated on poly-L-ornithin/laminin-coated 96-well plates at a density of 50.000 cells/well. Cotransfection with the pGL3-p-βIII-tubulin vector (100 ng/well) and the pRL SV40 vector (100 ng/well) was carried out according to the FuGene6 Transfection protocol (Roche). The pRL SV40 vector (Promega) served as an internal control vector.
# To amplify the class III β-tubulin gene promoter (fragment −450-+54), rat genomic DNA was used as a template for PCR (Dennis et al., Gene 2002; 294:269-277). The amplified fragment was inserted into the Mlu I/Xho I site of the pGL3-Basic firefly luciferase reporter vector (Promega) to generate the pGL3-p-βIII-tubulin experimental vector.
# After overnight incubation, the plate was decanted and given in 8-fold replicates fresh medium containing piperine (Sigma) or vehicle. As a positive control for in vitro differentiation, stem cells were treated by adding 1 μM retinoic acid (Sigma) to the medium missing the mitogens.
# After 48 hrs, the cells were harvested to prepare the cellular extracts for luciferase assay following the directions of the manufacturer (Promega). […]
# [3] = test system: carageenan-induced rat paw edema; settings: in vivo; cited from earlier work
# [4] = in vivo; cited from earlier work
# [5] = test system: mouse SCI model; experiment: Mouse spinal cord injury (SCI) model, Basso-Mouse-Score; format: in vivo; settings: i.p. 10 mg/kg, then 20 mg/kg on two days, plus 1 mg/kg daily s.c. over 2 weeks; day 1-35
# Method: Female mice at 2 months of age were anesthetized using inhalation anesthesia (1% Halothane/30% N20/70% O2). After laminectomy at the vertebral level Th8/9, the spinal cord was dorsally transected to ˜80% with fine iridectomy scissors leaving a ventral tissue bridge intact as previously described (Demjen et al. Nat Med 2004; 10: 389-395). The animals were treated postoperatively with gentamycin (i.p., 1 mg/kg bodyweight) once a day for 7 days. Bladders were emptied manually until restoration of autonomic bladder function. In the treatment experiment, C57BL/6 wild-type mice (n=20) received i.p. piperine during the operation (10 mg/kg bodyweight) and on the two following days (20 mg/kg bodyweight, each time. Further, the mice received a daily dose of 1 mg/kg bodyweight by continuous s.c. application over 2 weeks via an osmotic minipump (Alzet). Control group (sham, n=20) was treated accordingly but received only vehicle (20% Solutol-HS15). Piperine was solved in 20% Solutol-HS15 as described in Example 7. All animal experiments were approved by the ethical authorities. As a measurement for the outcome the Basso-Mouse-Score (BMS) (Basso et al. J Neurotrauma 2006; 23: 635-659) was determined at day 1, 7, 14, 21, 28, and 35 after operation. The BMS scores a value between 0 (no movement of the hind limbs) to 9 (healthy mouse).
# [6] = test system: rat MCAO model; experiment: Rat MCAO (filament) model for stroke, infarct volume by TTC staining
# [7] = test system: motoneural cell line NSC-34; experiment: Anti-apoptosis assay on motoneural cell line, staurosporine induced apoptosis, Caspase-Glo 3/7; format: cell-based; settings: compound 1 μM in the presence of staurosporine 0.1 μM
# Method: Instead of the SH-SY5Y cells used in Example 3 and 4, this analysis was performed with motoneural cell line NSC-34. […] Incubation with staurosporine (SP; 0.1 μM) alone served as positive control and incubation with vehicle served as negative control. The degree of apoptosis relative to the staurosporine control is shown in FIG. 4 (vehicle (sham): 6%; staurosporine (SP): 100%; piperine plus staurosporine: 70%; derivative B plus staurosporine: 55%; derivative E plus staurosporine: 75%; derivative G plus staurosporine: 76%; derivative K plus staurosporine: 83%; derivative S plus staurosporine: 77%; derivative U plus staurosporine: 71%).
# [8] = test system: SH-SY5Y neuronal cells; experiment: In vitro anti-apoptosis assay, staurosporine induced apoptosis, Caspase-Glo 3/7; format: cell-based, human
structure (smiles),measurement,setting,value
"O=C(/C=C/C=C/c1ccc2c(c1)OCO2)N1CCCCC1 [Piperine, (E,E)-1-[5-(1,3-benzodioxol-5-yl)-1-oxo-2,4-pentadienyl]piperidine]","seizure activity induced by L-glutamate, N-methyl-D-aspartate or guanidinosuccinate",[1],did not significantly block seizure activity
same,clonic convulsions induced by kainate,[1]; injected intra-peritoneally,inhibited clonic convulsions
same,"differentiation of neural stem cells to neurons, dose dependence","[2]; 0.2 μM up to 25, 50 or 100 μM, compared with sham and 1 μM retinoic acid",significantly stimulates
same,fold induction at 1 µM,"[2]; Rattus norvegicus, Neural stem cell, 1 μM final compound concentration, in comparison to sham treatment, read-out: Stimulation factor for differentiation of neural stem cells",2.1
same,anti-inflammatory activity,[3],significant anti-inflammatory activity
same,time of peak blood levels after dosing,[4],1 to 2 h
same,outcome of experimental SCI (Basso-Mouse-Score),[5],clearly improved the outcome
same,total edema-corrected infarct size,"[6]; 10 mg/kg i.v. 30 min after onset of occlusion, 24 h, mean ± SEM, n=30, p=0.031 vs vehicle",151±17 mm^3
same,"edema-corrected infarct volume, subcortical areas","[6]; 10 mg/kg i.v. 30 min after onset of occlusion, 24 h, mean ± SEM, not statistically significant",78±6 mm^3
same,"edema-corrected infarct volume, cortex","[6]; 10 mg/kg i.v. 30 min after onset of occlusion, 24 h, mean ± SEM, p=0.018 vs vehicle",73±14 mm^3
same,tolerability of the treatment,"[6]; 10 mg/kg i.v., rat",well tolerated
same,degree of apoptosis relative to the staurosporine control,[7],70%
same,degree of apoptosis relative to the staurosporine control,"[8]; compound 1 μM in the presence of staurosporine 0.1 μM, SH-SY5Y",66%
same,reduction of the staurosporine induced apoptosis,"[8]; piperine 100 μM to 10 μM with staurosporine 0.1 μM, 5 h",significant reduction
same,apoptotic effect by themselves,[8]; without staurosporine,neither piperine nor derivatives thereof exhibited an apoptotic effect by themselves
